We go through three compounds from ChEMBL document CHEMBL3286390, “Lead optimization of 1,4-azaindoles as antimycobacterial agents” (J Med Chem, 2014).

The nature of series [1]: Oral bioavailability in rat. In kind it is ADME, organism-based. To be noted: in vivo.
The test system of series [2] is Rattus norvegicus. The series is described as follows: (§1) AUC in Mycobacterium tuberculosis H37Rv ATCC 27294 infected Wistar rat infection model at 100 mg/kg, po. The class given is ADME, organism-based. Also noted: dose 100 mg/kg, route oral. To be noted: in vivo.
A short description of series [3]: Inhibition of Mycobacterium smegmatis thioredoxin 6xHis-tagged decaprenylphosphoryl-beta-D-ribose2'-epimerase 1 overexpressed in Escherichia coli rosetta cells using farnesyl-phosphoryl-beta-D-ribofuranose as substrate. Also noted: species or system Mycolicibacterium smegmatis.
Series [4] in a line: Aqueous solubility of the compound in phosphate buffer at pH 7.4 after 24 hrs by UV-MS analysis. The class given is physicochemical.
Another series concerns the target Cytochrome P450 2C19 (Homo sapiens, UniProt P33261). The series is described as follows: Inhibition of human CYP2C19. The class given is ADME.
In the next series the target is Cytochrome P450 2D6 (Homo sapiens, UniProt P10635). The series can be described thus: Inhibition of human CYP2D6. The class given is ADME.
Series [5] is described as follows: Unbound fraction in human plasma. In kind it is ADME, cell-free.
The next series deals with Cytochrome P450 2C9 (Homo sapiens, UniProt P11712). The series is described as follows: Inhibition of human CYP2C9. The class given is ADME.
Series [6] concerns Rattus norvegicus. The series can be described thus: T>MIC in Wistar rat chronically infected with Mycobacterium tuberculosis H37Rv ATCC 27294 at 100 mg/kg, po.
The target in the next series is T1, Cytochrome P450 1A2 (Homo sapiens, UniProt P05177).
T1 sequence (P05177 whole entry): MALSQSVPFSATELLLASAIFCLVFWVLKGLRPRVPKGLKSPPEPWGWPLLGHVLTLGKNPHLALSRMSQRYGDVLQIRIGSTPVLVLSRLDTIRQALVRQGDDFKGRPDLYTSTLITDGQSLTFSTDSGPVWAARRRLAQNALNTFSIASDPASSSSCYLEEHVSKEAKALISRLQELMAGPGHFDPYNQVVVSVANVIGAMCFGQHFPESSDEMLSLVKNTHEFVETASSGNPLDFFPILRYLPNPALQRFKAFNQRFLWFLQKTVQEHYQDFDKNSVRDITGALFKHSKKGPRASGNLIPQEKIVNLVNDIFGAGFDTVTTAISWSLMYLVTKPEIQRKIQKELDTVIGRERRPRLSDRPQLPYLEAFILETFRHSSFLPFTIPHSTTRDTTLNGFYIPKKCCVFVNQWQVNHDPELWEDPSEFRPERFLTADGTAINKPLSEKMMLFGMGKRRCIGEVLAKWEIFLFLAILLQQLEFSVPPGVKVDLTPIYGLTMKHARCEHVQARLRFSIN
The series is described as follows: Inhibition of human CYP1A2. The class given is ADME.

Series [7] can be described thus: Intrinsic clearance in mouse liver microsomes. The class given is ADME. The following applies: read-out: CLH. Background: Liver microsomes are a subcellular fraction often used to study metabolism.
Series [8] is described as follows: Cmax in BALB/c mouse at 30 mg/kg, po administered as single dose. The class given is ADME, organism-based. Also on record: dose 30 mg/kg, route oral. The following applies: in vivo.
Series [9] relates to Mycobacterium tuberculosis. In kind it is functional, H37Rv ATCC 27294, THP-1. To be noted: Mycobacterium tuberculosis, H37Rv ATCC 27294; read-out: MIC.
Series [10] relates to Mycobacterium tuberculosis. In kind it is functional, organism-based. Also on record: dose 100 mg/kg. To be noted: H37Rv ATCC 27294, Lung, 100 mg/kg.
Series [11] in a line: Tmax in BALB/c mouse at 30 mg/kg, po administered as single dose. The class given is ADME, organism-based. Also noted: dose 30 mg/kg, route oral. To be noted: in vivo.
Series [12] is described as follows: Half life in BALB/c mouse at 30 mg/kg, po administered as single dose. In kind it is ADME, organism-based. Also noted: dose 30 mg/kg, route oral. To be noted: in vivo.
The target in a further series is Phosphodiesterase 6. The series can be described thus: Inhibition of PDE6 (unknown origin). The class given is protein assay, Homo sapiens.
The target of series [13] is Voltage-gated inwardly rectifying potassium channel KCNH2 (Homo sapiens, UniProt Q12809).
For a further series, the target named is Cytochrome P450 3A4 (Homo sapiens, UniProt P08684). The series is described as follows: Inhibition of human CYP3A4. The class given is ADME.
The nature of series [14]: Permeability across basolateral to apical side in human Caco2 cells. In kind it is ADME, cell-based. To be noted: Caco-2, read-out: permeability. For orientation: Caco-2 monolayers are a common model of the intestinal barrier.
A short description of series [15]: AUC (infinity) in BALB/c mouse at 30 mg/kg, po administered as single dose. Also on record: time infinity, dose 30 mg/kg, route oral. In kind it is ADME, organism-based. To be noted: plasma.
A short description of series [16]: AUC (infinity) in BALB/c mouse at 50 mg/kg, po administered as single dose. The class given is ADME, organism-based. Also noted: dose 50 mg/kg, route oral, time infinity. The following applies: plasma.
Series [17] can be described thus: Half life in BALB/c mouse at 50 mg/kg, po administered as single dose. The class given is ADME, organism-based. Also noted: dose 50 mg/kg, route oral. The following applies: in vivo.
Series [18] can be described thus: Clearance in po dosed rat. The class given is ADME, organism-based. The following applies: in vivo.
Series [19] in a line: Cmax in BALB/c mouse at 50 mg/kg, po administered as single dose. In kind it is ADME, organism-based. Also on record: dose 50 mg/kg, route oral. To be noted: in vivo.
The nature of series [20]: Tmax in BALB/c mouse at 50 mg/kg, po administered as single dose. The class given is ADME, organism-based. Also noted: dose 50 mg/kg, route oral. The following applies: in vivo.
Series [21] can be described thus: as §1. In kind it is ADME, organism-based. Also noted: dose 100 mg/kg, route oral. The following applies: Wistar, in vivo.
Series [22] can be described thus: Octanol-water partition coefficient, log D of the compound at pH 7.4 by shake flask method. In kind it is physicochemical.
In series [23] the test system is Mycobacterium tuberculosis. The series can be described thus: microbe, parasite or virus in culture. The following applies: H37Rv ATCC 27294, 120 h.
Description: Antimicrobial activity against Mycobacterium tuberculosis H37Rv ATCC 27294 assessed as growth inhibition after 5 days by microdilution method
Series [24] is described as follows: Permeability across apical to basolateral side in human Caco2 cells. In kind it is ADME, cell-based. The following applies: Caco-2, read-out: permeability.

≈ marks a conversion by molar mass, not a printed value. Calls of active or inactive are those of the source. A value given as a limit tells only on which side of the number the result lay.

Sequence of Cytochrome P450 2D6 (P10635 whole entry): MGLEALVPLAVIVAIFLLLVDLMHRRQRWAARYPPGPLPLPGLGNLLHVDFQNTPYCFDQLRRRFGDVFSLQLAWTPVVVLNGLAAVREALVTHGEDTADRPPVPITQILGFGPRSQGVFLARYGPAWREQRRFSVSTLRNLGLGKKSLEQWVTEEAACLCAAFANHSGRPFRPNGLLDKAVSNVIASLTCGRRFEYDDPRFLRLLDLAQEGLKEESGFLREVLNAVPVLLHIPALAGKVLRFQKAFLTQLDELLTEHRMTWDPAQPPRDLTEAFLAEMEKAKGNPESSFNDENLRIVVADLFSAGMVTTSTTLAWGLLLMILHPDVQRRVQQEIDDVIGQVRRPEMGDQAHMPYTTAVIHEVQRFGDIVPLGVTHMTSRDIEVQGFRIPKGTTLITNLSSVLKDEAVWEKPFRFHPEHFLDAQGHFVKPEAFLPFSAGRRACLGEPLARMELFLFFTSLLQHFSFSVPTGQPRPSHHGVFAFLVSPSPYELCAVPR
Sequence of Cytochrome P450 2C9 (P11712 whole entry): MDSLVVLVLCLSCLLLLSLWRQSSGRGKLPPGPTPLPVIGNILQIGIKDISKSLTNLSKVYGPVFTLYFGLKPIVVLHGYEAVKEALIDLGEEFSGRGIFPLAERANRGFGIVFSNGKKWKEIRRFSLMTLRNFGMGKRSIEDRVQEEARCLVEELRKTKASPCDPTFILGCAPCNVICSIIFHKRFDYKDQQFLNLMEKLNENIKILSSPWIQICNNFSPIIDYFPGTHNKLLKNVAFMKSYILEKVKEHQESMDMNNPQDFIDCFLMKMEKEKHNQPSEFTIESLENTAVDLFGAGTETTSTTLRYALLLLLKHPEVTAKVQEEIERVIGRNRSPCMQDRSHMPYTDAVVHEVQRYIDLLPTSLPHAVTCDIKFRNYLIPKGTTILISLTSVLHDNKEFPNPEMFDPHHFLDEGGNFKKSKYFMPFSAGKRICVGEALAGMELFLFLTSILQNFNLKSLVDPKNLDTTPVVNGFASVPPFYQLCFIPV
Sequence of Cytochrome P450 2C19 (P33261 whole entry): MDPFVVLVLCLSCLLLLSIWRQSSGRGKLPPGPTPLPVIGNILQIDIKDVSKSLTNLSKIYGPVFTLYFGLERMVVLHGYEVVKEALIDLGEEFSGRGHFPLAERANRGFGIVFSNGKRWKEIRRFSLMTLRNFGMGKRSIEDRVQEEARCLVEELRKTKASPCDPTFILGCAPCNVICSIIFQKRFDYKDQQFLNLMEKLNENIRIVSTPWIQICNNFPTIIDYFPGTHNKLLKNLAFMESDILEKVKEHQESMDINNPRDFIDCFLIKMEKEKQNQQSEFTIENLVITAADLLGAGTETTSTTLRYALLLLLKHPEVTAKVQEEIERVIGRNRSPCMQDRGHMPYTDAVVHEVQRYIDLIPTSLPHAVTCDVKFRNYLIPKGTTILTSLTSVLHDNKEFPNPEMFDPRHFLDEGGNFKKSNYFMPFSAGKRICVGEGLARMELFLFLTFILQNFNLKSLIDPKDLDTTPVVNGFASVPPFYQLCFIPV
Sequence of Voltage-gated inwardly rectifying potassium channel KCNH2 (Q12809 whole entry): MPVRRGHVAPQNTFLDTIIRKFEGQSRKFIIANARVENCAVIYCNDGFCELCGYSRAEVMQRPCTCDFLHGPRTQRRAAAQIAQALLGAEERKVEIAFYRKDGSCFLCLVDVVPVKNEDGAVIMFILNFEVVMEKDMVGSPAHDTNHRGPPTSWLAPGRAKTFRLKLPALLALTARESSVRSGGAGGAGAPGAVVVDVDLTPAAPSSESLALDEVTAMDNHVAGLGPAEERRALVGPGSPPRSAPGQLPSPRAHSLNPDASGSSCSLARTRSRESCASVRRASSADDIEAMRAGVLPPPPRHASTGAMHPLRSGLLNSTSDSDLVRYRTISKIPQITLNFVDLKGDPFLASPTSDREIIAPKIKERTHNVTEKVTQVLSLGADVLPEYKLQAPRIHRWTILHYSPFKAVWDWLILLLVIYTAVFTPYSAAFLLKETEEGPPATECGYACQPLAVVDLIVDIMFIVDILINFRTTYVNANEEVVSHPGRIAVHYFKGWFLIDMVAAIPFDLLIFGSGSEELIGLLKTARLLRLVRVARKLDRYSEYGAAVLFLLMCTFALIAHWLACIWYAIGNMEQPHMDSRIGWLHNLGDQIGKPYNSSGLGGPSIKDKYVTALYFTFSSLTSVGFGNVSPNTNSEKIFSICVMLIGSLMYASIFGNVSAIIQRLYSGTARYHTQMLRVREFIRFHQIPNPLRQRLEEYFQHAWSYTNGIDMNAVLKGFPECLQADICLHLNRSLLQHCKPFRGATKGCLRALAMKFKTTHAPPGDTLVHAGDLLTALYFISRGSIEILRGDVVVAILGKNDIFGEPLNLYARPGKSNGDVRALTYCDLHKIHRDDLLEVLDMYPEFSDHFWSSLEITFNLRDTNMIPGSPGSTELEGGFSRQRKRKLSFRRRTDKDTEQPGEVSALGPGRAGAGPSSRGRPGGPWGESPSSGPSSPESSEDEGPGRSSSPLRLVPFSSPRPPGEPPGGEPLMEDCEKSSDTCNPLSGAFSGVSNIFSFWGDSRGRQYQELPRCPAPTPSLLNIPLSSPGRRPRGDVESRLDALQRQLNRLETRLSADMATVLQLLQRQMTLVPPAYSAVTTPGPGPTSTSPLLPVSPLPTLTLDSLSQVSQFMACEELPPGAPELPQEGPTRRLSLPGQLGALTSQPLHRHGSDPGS
Sequence of Cytochrome P450 3A4 (P08684 whole entry): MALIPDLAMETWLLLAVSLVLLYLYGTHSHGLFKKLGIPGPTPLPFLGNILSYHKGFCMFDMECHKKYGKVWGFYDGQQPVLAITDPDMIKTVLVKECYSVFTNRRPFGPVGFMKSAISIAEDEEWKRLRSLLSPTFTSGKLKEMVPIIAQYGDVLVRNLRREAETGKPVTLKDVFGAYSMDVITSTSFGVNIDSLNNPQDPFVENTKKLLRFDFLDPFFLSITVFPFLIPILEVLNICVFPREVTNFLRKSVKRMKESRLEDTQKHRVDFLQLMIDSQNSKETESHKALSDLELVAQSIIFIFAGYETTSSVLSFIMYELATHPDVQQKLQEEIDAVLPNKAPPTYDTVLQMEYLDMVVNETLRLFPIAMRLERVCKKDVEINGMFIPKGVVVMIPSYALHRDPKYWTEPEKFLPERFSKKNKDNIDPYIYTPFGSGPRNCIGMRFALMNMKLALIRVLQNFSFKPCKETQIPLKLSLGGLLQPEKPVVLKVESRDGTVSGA

By bioavailability is commonly meant dose-corrected exposure relative to a reference, in per cent. Low readings indicate little systemic uptake, high ones much systemic uptake. In general, AUC refers to concentration integrated over time. Read a low AUC as low exposure. The IC50 is the point on the concentration scale where inhibition reaches its midpoint. A high value points to lower potency. In general, solubility refers to how much of the substance goes into solution per volume. Broadly, the fraction unbound is the share of the substance not bound to proteins or other matrix. Usually Cmax stands for the highest concentration seen after dosing. Broadly, the Tmax is the time at which the peak concentration occurs. The term half-life denotes the time needed for the level to fall by half in the phase considered. A low value points to rapid decline. As a reminder, the AUC(0-inf) is the area under the concentration-time curve extrapolated to infinity. A higher AUC(0-inf) goes with high exposure. In the case of `COc1ncnc(Cn2cc(C(=O)NCCF)c3ncc(C)cc32)c1C`, the bioavailability in [1] came out at 80%. In addition, the AUC with Rattus norvegicus [2] worked out at 23 µM·h. The IC50 was 0.003 µM in [3]; greater than 50 µM at Cytochrome P450 2C19; greater than 50 µM against Cytochrome P450 2D6; greater than 50 µM at Cytochrome P450 2C9; greater than 50 µM against Cytochrome P450 1A2; 1 µM on Phosphodiesterase 6. In addition, the IC50 in [13] is greater than 33 µM; on Cytochrome P450 3A4, greater than 50 µM. This compound also registered a solubility at 24 h in [4] of 4 µM (≈ 1.43 µg/mL). In series [5], this compound showed a fraction unbound of 0.07. The “T>MIC” value in the series with Rattus norvegicus [6] was 10 h. Further, the microsomal CLint in series [7] turned out to be 107 µL/min/mg. This compound registered a Cmax in series [8] of 5.24 µM. The MIC in series [9] is less than 0.39 µM. Moreover, in series [10], the outcome was Active. The Tmax in series [11] was determined as 15 min. Also, in series [12], the half-life is 30 min. For the same compound, the Papp B→A in series [14] was 18 ×10⁻⁶ cm/s. The same compound yielded an AUC(0-inf) in series [15] of 2 µM·h.
As usually defined, the CL/F is the apparent clearance, not corrected for the fraction that reaches the circulation. Take `COc1ncnc(Cn2cc(C(=O)NCCO)c3ncc(C)cc32)c1C` [TBA-7371]: the bioavailability in series [1] came to 100%. Moreover, in series [16], the total exposure AUC(0-inf) was found to be 62 µM·h. Further, the IC50 is 0.01 µM in [3]; greater than 50 µM on Cytochrome P450 2C19; greater than 50 µM on Cytochrome P450 2D6; greater than 50 µM against Cytochrome P450 2C9; greater than 50 µM against Cytochrome P450 1A2; greater than 33 µM in [13]. This compound also yielded an IC50 against Cytochrome P450 3A4 greater than 50 µM. Also, the half-life in series [17] is 42 min. The compound further gave a CL/F in series [18] of 27 mL/min/kg. The Cmax in series [19] amounted to 73 µM. Further, the Tmax in [20] came out at 15 min.
By logD is commonly meant the decadic logarithm of the distribution of all forms, ionised or not, between an organic phase and buffer at a given pH. Compound `COc1ncnc(Cn2cc(C(=O)NCC(F)F)c3ncc(C)cc32)c1C` yielded an AUC in series [21] of 23 µM·h. Besides, the IC50 in series [3] was less than 0.005 µM; on Cytochrome P450 2C19 it was greater than 50 µM; at Cytochrome P450 2D6, greater than 50 µM; on Cytochrome P450 2C9 it was greater than 50 µM; against Cytochrome P450 1A2 it was greater than 50 µM; on Phosphodiesterase 6, greater than 10 µM. The results for the IC50 (in [13]; at Cytochrome P450 3A4) were greater than 33 µM and greater than 50 µM, respectively. Moreover, the concentration in solution in [4] (solubility at 24 h) came to 3 µM (≈ 1.13 µg/mL). This compound also displayed a fraction unbound in series [5] of 0.05. Moreover, the logD in series [22] came to 2.9. Moreover, the “T>MIC” value with Rattus norvegicus [6] turned out to be 10 h. The microsomal CLint in series [7] was found to be 77 µL/min/mg. Moreover, the MIC in [9] and in series [23] was less than 0.39 µM throughout. Further, the outcome in series [10] was Active. In series [14], the Papp B→A stood at 9 ×10⁻⁶ cm/s. Besides, the Papp A→B in [24] was 24 ×10⁻⁶ cm/s.
